# Assay results published in paper PMC11882969 (Nature Communications, 2025).
# “And” between values parts separate entries of the source, which are not always exact repeats. Equal values may be shown once.
# Legend:
# hCB2 [1] = biological target: T1, hCB2 (Homo sapiens, UniProt P34972); assay: TRUPATH BRET2 GoA dissociation, HEK293T; assay type: cell-based; design: expressed in transfected cells; host or cells: HEK293T cells (ATCC: CRL-3216), transient co-transfection; conditions: Log[drug], replicate columns
# T1 sequence (P34972 whole entry): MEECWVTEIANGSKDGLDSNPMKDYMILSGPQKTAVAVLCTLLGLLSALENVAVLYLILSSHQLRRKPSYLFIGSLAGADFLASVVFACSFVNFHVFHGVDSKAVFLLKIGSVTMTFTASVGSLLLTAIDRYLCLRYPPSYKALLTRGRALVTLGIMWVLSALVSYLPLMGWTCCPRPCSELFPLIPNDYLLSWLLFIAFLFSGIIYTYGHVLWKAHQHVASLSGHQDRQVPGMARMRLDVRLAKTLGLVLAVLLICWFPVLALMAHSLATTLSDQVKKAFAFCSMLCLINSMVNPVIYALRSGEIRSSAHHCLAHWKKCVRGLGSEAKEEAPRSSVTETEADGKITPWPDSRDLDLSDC
# hCB1 [2] = biological target: T2, hCB1 (Homo sapiens, UniProt P21554); assay: Tango β-arrestin-2 recruitment, HTLA cells, CB1R; assay type: cell-based; design: expressed in transfected cells; host or cells: HTLA cells (gift of R. Axel), transient transfection; conditions: Log[drug]
# T2 sequence (P21554 whole entry): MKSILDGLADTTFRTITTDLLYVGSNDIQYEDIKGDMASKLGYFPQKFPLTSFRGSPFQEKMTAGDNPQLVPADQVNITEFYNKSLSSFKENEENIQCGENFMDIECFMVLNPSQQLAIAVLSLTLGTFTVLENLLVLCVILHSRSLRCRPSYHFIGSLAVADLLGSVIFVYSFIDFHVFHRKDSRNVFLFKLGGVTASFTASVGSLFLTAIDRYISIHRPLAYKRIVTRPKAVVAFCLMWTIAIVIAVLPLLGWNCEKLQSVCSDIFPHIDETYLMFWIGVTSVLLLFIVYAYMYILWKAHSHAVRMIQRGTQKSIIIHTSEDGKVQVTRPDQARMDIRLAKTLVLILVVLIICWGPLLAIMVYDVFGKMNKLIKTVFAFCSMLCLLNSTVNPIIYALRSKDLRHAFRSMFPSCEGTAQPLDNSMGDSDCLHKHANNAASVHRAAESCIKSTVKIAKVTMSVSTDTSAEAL
# hCB2 [3] = biological target: T1, hCB2; assay: Cerep HTRF cAMP inhibition assay, hCB2 CHO-K1; assay type: cell-based; design: host or cells: HEK293SL cells, transient PEI transfection; conditions: for functional response, concentration-response point (FigS7d): replicate columns;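 on all read-outs here: compounds incubated 30 min at 37 °C with hCB2 CHO-K1 cells, cAMP detected by HTRF, HBSS as basal and reference agonist as stimulated control, run in triplicate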
# Description: (§1) The hCB1/2 CHO-K1 cells (ATCC: CCL-61) are suspended in HBSS buffer (Invitrogen) complemented with 20 mM HEPES (pH 7.4), then distributed in microplates at a density of 5.103 cells/well in the presence of either of the following: HBSS (basal control), the reference agonist (stimulated control) or the test compounds. […] Following 30 min incubation at 37 °C, the cells are lysed, and the fluorescence acceptor (D2-labeled cAMP) and fluorescence donor (anti-cAMP antibody labeled with europium cryptate) are added. […] Each measurement was done in triplicate.
# CB1 (rCB1) = CB1 (rCB1) (Rattus norvegicus, UniProt P20272); assay: Radioligand competition binding, [3H]-CP-55,940, rat brain membranes; conditions: rCB1
# Chain of CB1 (rCB1) (P20272 whole entry): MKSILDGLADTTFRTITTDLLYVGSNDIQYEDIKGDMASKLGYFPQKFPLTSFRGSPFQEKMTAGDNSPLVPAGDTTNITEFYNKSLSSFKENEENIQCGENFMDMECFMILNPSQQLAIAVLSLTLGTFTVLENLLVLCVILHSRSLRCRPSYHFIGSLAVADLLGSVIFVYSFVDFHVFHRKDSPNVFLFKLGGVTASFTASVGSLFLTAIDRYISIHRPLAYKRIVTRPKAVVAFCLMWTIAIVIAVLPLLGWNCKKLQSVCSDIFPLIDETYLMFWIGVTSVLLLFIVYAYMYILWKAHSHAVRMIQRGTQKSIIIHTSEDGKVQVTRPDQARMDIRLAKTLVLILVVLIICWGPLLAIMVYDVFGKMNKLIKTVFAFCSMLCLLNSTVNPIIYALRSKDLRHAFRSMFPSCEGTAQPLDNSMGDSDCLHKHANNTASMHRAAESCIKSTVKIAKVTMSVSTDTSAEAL
# hCB2 [4] = biological target: T1, hCB2; assay: Tango β-arrestin-2 recruitment, HTLA cells, CB2R; assay type: cell-based; design: expressed in transfected cells; host or cells: HEK293 cells stably expressing human CB2R (Laboratory of Ken Mackie); conditions: hCB2
# Description: The Tango β-arrestin-2 recruitment assays were performed as described[83]. In brief, HTLA cells (a gift from the laboratory of R. Axel) were transiently transfected with human CB1R or CB2R Tango DNA construct overnight in DMEM supplemented with 10 % FBS, 100 µg ml−1 streptomycin and 100 U ml−1 penicillin. The transfected cells were then plated into poly-L-lysine-coated 384-well white clear-bottom cell culture plates in DMEM containing 1% dialysed FBS at a density of 10,000–15,000 cells per well. After incubation for 6 h, the plates were added with drug solutions prepared in DMEM containing 1% dialysed FBS for overnight incubation. On the day of assay, medium and drug solutions were removed and 20 µl per well of BrightGlo reagent (Promega) was added. The plates were further incubated for 20 min at room temperature and counted using the Wallac TriLux Microbeta counter (PerkinElmer). The results were analysed using GraphPad Prism 9. Each experiment was performed in triplicate and functional IC50 values were determined from the mean of three independent experiments.
# hCB1 [5] = biological target: T2, hCB1; assay: DiscoverX PathHunter β-arrestin-2 recruitment; assay type: cell-based; conditions: individual replicates;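 further: CHO-K1 cells expressing hCB1, agonist mode, compound exposure with 1% vehicle, chemiluminescence read-out of the β-arrestin-2 recruitment signal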
# hCB1 [6] = biological target: T2, hCB1; assay: Cerep HTRF cAMP inhibition assay, hCB1 CHO-K1; assay type: cell-based; design: host or cells: HEK293SL cells, transient PEI transfection
# Description: as §1
structure (smiles),measurement,setting,value
Cc1cc(C(=O)N2CC3(CCC3)C2C2CCCO2)nn1-c1cccc(C(F)(F)F)c1 (centres unmarked) [‘3737],"functional response, concentration-response point (FigS7e, normalized)",hCB2 [1]; M = -5,7.15 and 0.08499 and 7.219 and 7.788 and 7.891 and 6.738 and 8.045 and 7.095 and 12.8638 and 12.2484 and 11.5588 and 11.0027
same,"functional response, concentration-response point (FigS7e, normalized)",hCB2 [1]; M = -5.52,5.302 and 6.612 and 7.12 and 7.029 and 6.875 and 5.885 and 5.894 and 6.474 and 7.41 and 9.531 and 8.971 and 8.263
same,"functional response, concentration-response point (FigS7e, normalized)",hCB2 [1]; M = -6,1.28 and 2.3503 and 2.331 and 3.337 and 2.385 and 1.616 and 1.676 and 1.052 and 3.161 and 3.087 and 4.085 and 2.086
same,"functional response, concentration-response point (FigS7e, normalized)",hCB2 [1]; M = -6.52,0.8173 and 0.5745 and 0.009098 and 0.9653 and 0.9374 and 0.7056 and 0.8258 and 0.7943 and 1.033 and 1.163 and 0.8851 and 1.056
same,"functional response, concentration-response point (FigS7e, normalized)",hCB2 [1]; M = -7,0.2747 and 0.06981 and 0.08878 and 0.8059 and -0.06126 and 0.2392 and 0.2936 and 0.4538 and 0.7999 and 0.4069 and 0.5552 and 0.6998
same,"functional response, concentration-response point (FigS7e, normalized)",hCB2 [1]; M = -7.52,0.1912 and 0.08499 and -0.09335 and 0.658 and 0.6598 and 0.9202 and 0.07323 and 0.6226 and 0.2957 and 0.8814 and 0.5663 and 0.5329
same,"functional response, concentration-response point (FigS7e, normalized)",hCB2 [1]; M = -8,0.324 and -0.4159 and -0.002285 and 0.1419 and 0.1305 and 0.7285 and 0.8 and 0.368 and 0.355 and 0.3476 and 0.5886 and 0.8221
same,"functional response, concentration-response point (FigS7e, normalized)",hCB2 [1]; M = -8.52,-0.4237 and 0.0337 and -0.52 and -0.4863 and 0.2451 and -0.1507 and 1.084 and 0.6009 and 0.6985 and 0.3222 and -0.007056 and 0.3034
same,"functional response, concentration-response point (FigS7e, normalized)",hCB2 [1]; M = -12,0.3611 and 0.2552 and -0.6451 and 0.02889
same,"response, replicate values of concentration-response curve (FigS7f)",hCB1 [2]; M = -4.52,16.1787 and -30.1888 and -21.8736 and -37.3037 and -30.7086 and -43.6201 and -17.4903 and -7.002 and -28.2206 and 69.1202 and 86.7632
same,"response, replicate values of concentration-response curve (FigS7f)",hCB1 [2]; M = -5,10.5 and 4.251 and -11.4922 and -24.0074 and 39.1171 and 4.908 and -25.6442 and 7.194 and 4.112 and 35.3652 and 54.7761
same,"response at Log[drug], M -5 (FigS4e)","hCB1 [2]; M = -5, individual replicates",1.604 and 1.6378 and -0.1263 and 3.554 and -1.645 and -3.332 and -3.586 and -3.254 and -1.133 and -2.551 and -0.4401 and -2.2823
same,"response, replicate values of concentration-response curve (FigS7f)",hCB1 [2]; M = -5.52,-34.1436 and -19.4525 and -21.2651 and -33.8536 and -16.1649 and -20.5572 and -2.476 and -19.5818 and -27.1597 and -5.334 and 9.411
same,"response at Log[drug], M -5.52 (FigS4e)","hCB1 [2]; M = -5.52, individual replicates",3.364 and 3.2967 and 3.89 and 5.267 and -2.445 and -3.368 and -3.286 and -3.18 and -0.5298 and -0.4645 and -2.331 and -1.157
same,"response, replicate values of concentration-response curve (FigS7f)",hCB1 [2]; M = -6,47.6523 and 12.1859 and 4.34 and -19.6283 and -3.001 and -0.2146 and 2.4245 and 18.2472 and 13.6095 and 40.7237 and 38.7735
same,"response at Log[drug], M -6 (FigS4e)","hCB1 [2]; M = -6, individual replicates",5.688 and 6.311 and 5.608 and 6.012 and -1.436 and -3.213 and -2.355 and -0.1315 and -0.6439 and -0.4319 and -1.117 and -0.5542
same,"response, replicate values of concentration-response curve (FigS7f)",hCB1 [2]; M = -6.52,26.7755 and 17.066 and 0.4863 and -24.0472 and -30.3238 and -3.24 and 14.0743 and -8.114 and 32.4836 and -15.0304 and -19.0948
same,"response at Log[drug], M -6.52 (FigS4e)","hCB1 [2]; M = -6.52, individual replicates",5.756 and 5.2335 and 6.796 and 5.427 and -1.042 and -1.74 and -1.178 and 0.9023 and 2.299 and 1.818 and -0.3423 and 0.155
same,"response, replicate values of concentration-response curve (FigS7f)",hCB1 [2]; M = -7,34.9133 and -3.95 and -16.1188 and -35.3 and 25.4625 and -10.8968 and -21.6834 and 6.2943 and 0.9695 and -12.3146 and 7.534
same,"response at Log[drug], M -7 (FigS4e)","hCB1 [2]; M = -7, individual replicates",8.884 and 5.924 and 8.758 and 7.292 and -0.04536 and -0.9069 and -0.4556 and -0.1931 and 0.8804 and 2.804 and 1.011 and 0.1957
same,"response, replicate values of concentration-response curve (FigS7f)",hCB1 [2]; M = -7.52,-5.053 and -15.3203 and -3.0249 and -6.279 and -50.5337 and -10.2997 and -15.5807 and -8.983 and -20.2588 and 4.854 and 34.2352
same,"response at Log[drug], M -7.52 (FigS4e)","hCB1 [2]; M = -7.52, individual replicates",9.415 and 8.198 and 9.343 and 6.627 and -1.362 and -1.444 and -1.617 and 0.25 and 3.66 and 1.117 and 0.375 and 3.994
same,"response at Log[drug], M -8 (FigS4e)","hCB1 [2]; M = -8, individual replicates",8.737 and 7.057 and 9.276 and 8.661 and -0.8249 and 2.133 and -0.7879 and -0.8084 and 1.019 and 1.329 and 1.361 and 1.467
same,"response at Log[drug], M -8.52 (FigS4e)","hCB1 [2]; M = -8.52, individual replicates",12.5705 and 14.1572 and 15.386 and 12.0363 and 0.2264 and -0.5023 and 0.2681 and 0.2421 and 3.757 and 10.0248 and 2.888 and 3.985
same,"response, replicate values of concentration-response curve (FigS7f)",hCB1 [2]; M = -9,8.713
same,"response at Log[drug], M -9 (FigS4e)","hCB1 [2]; M = -9, individual replicates",14.7823 and 12.9338 and 10.7167 and 15.0494 and -0.7053 and 1.382 and -0.9032 and 2.064 and 3.902 and 4.367 and 2.588 and 2.216
same,"response, replicate values of concentration-response curve (FigS7f)",hCB1 [2]; M = -9.52,-15.5865 and 2.109 and -19.0089 and -14.201 and 8.65 and -30.6423 and 15.2767 and -7.75 and 4.87 and -25.5104 and 1.592
same,"response at Log[drug], M -9.52 (FigS4e)","hCB1 [2]; M = -9.52, individual replicates",13.1261 and 12.6453 and 12.7896 and 11.1868 and 3.428 and 1.32 and 2.251 and 2.397 and 2.423 and 1.937 and 2.288 and 2.144
same,"response, replicate values of concentration-response curve (FigS7f)",hCB1 [2]; M = -10,-11.9485 and -4.635 and -5.484 and 10.0562 and 9.379 and -4.05 and 21.9756 and 8.952 and 10.1035 and -36.3186 and 8.518
same,"response at Log[drug], M -10 (FigS4e)","hCB1 [2]; M = -10, individual replicates",11.8653 and 11.8119 and 13.3986 and 14.0664 and 1.366 and 1.523 and 1.018 and -1.502 and 5.629 and 3.467 and 5.091 and 7.656
same,"response at Log[drug], M -10.52 (FigS4e)","hCB1 [2]; M = -10.52, individual replicates",14.5419 and 16.8873 and 18.068 and 18.8961 and 0.7314 and -0.5544 and 7.931 and 2.309 and 2.226 and 3.798 and 2.154 and 1.523
same,"response at Log[drug], M -11 (FigS4e)","hCB1 [2]; M = -11, individual replicates",12.4743 and 12.4476 and 8.323 and 8.772 and 2.428 and 1.528 and 2.267 and 2.496 and 5.774 and 4.76 and 2.712 and 3.85
same,"response at Log[drug], M -11.52 (FigS4e)","hCB1 [2]; M = -11.52, individual replicates",6.5336 and 8.19 and 7.298 and 6.6351 and 3.735 and 0.95 and 2.715 and 0.09109 and 2.743 and 1.926 and 0.799 and -0.6593
same,"response at Log[drug], M -12 (FigS4e)","hCB1 [2]; M = -12, individual replicates",-0.6945 and 1.426 and -1.629 and 0.8975 and 0.8147 and 0.1796 and -0.8095 and -0.1848 and 0.03361 and 0.3025 and -0.05947 and -0.2767
same,Emax,"hCB2 [3]; CHO-K1, hCB2",45%
same,"functional response, concentration-response point (FigS7d)",hCB2 [3]; Concentration [M] 1e-12,-30 and 18.5 and 4.6
same,"functional response, concentration-response point (FigS7d)",hCB2 [3]; Concentration [M] 1e-11,15.9 and 16.3 and 22.7
same,"functional response, concentration-response point (FigS7d)",hCB2 [3]; Concentration [M] 1e-10,3.3 and 8.5 and 15.6
same,"functional response, concentration-response point (FigS7d)",hCB2 [3]; Concentration [M] 1e-9,40.4 and -11.1 and 23.4
same,"functional response, concentration-response point (FigS7d)",hCB2 [3]; Concentration [M] 1e-8,41.2 and 37.3 and 34.7
same,"functional response, concentration-response point (FigS7d)",hCB2 [3]; Concentration [M] 1e-7,47.6 and 60.7 and 69.2
same,"functional response, concentration-response point (FigS7d)",hCB2 [3]; Concentration [M] 1e-6,52.3 and 67.9 and 43.7
same,"functional response, concentration-response point (FigS7d)",hCB2 [3]; Concentration [M] 1e-5,46.2 and 40.4 and 47.6
same,Cerep cAMP pEC50,hCB2 [3]; hCB2,8.4 [7.7 – 12.5]
same,EC50,hCB2 [3]; hCB2,4.3 nM
same,pKi [95% CI],CB1 (rCB1),6.76 [6.5 – 7.03]
same,Emax,"hCB2 [4]; HTLA, read-out: Tango ß-arrestin recruitment Emax",9%
same,Tango ß-arrestin recruitment pEC50,hCB2 [4],5.8 [5.7 – 5.9]
same,EC50,hCB2 [4]; read-out: Tango ß-arrestin recruitment EC50,1500 nM
same,response at log[M] -5 (FigS4f),hCB1 [5]; log[M] = -5,2.937 and 3.369
same,response at log[M] -5.47712 (FigS4f),hCB1 [5]; log[M] = -5.47712,2.132 and 1.959
same,response at log[M] -5.95424 (FigS4f),hCB1 [5]; log[M] = -5.95424,0.8089 and 2.3908
same,response at log[M] -6.43136 (FigS4f),hCB1 [5]; log[M] = -6.43136,0.2049 and 1.2691
same,response at log[M] -6.90849 (FigS4f),hCB1 [5]; log[M] = -6.90849,-0.5141 and 0.32
same,response at log[M] -7.38561 (FigS4f),hCB1 [5]; log[M] = -7.38561,0.003595 and 0.06112
same,response at log[M] -7.86273 (FigS4f),hCB1 [5]; log[M] = -7.86273,0.32 and 0.4063
same,response at log[M] -8.33985 (FigS4f),hCB1 [5]; log[M] = -8.33985,0.003595 and -0.3703
same,response at log[M] -8.81697 (FigS4f),hCB1 [5]; log[M] = -8.81697,0.2049 and 0.8664
same,response at log[M] -9.29409 (FigS4f),hCB1 [5]; log[M] = -9.29409,-0.4278 and -0.5141
same,Emax,hCB1 [6]; CHO-K1,99%
same,Cerep cAMP pEC50,hCB1 [6]; hCB1,6.5 [6.0 – 6.8]
same,EC50,hCB1 [6]; hCB1,326 nM
